Results published in patent US9688760B2, “Anti-leukocyte adhesion for the mitigation of potential adverse events caused by CD3-specific binding domains” (AMGEN RESEARCH (MUNICH) GMBH, priority 2013, dated 2017).

Columns and labels:
patients = test: Phase 1 clinical study: Blinatumomab with PPS co-medication; type: in vivo, human; settings: for clinical response: with PPS co-medication
Protocol: In a phase 1 clinical study three patients were treated with Blinatumomab at an initial dose of 5 μg/m^2/day for 1 week followed by a dose escalation to 60 μg/m^2/day for additional 3 to 7 weeks.

HUVEC = test: In vitro flow chamber: T cell-rolling and adhesion on HUVEC, short-term conditions; type: cell-based, human
Protocol: Human brain microvascular endothelial cells (HBMEC) (#1000, Sciencell Research Laboratories) or human umbilical vein endothelial cells (HUVEC) (#C-12200, Promocell) were used as endothelial cell-model. Cryopreserved HBMEC at passage 1 (>5×10^5 cells/ml) were first cultivated in fibronectin-coated Nunclon-treated 75 cm^2 cell culture flasks (#156499, Nunc) at 37° C. and 5% CO2 in a Heraeus Cytoperm 2 (Thermo Scientific) according to the manufacturer's instructions. Sub-cultivation of HBMEC was done with the Detach Kit (#C-41200, Promocell) consisting of HEPES-buffered balanced salt solution (#C-40000, Promocell), trypsin-EDTA solution (0.04%/0.03%) (#C-41000, Promocell) and trypsin neutralization solution (TNS, #C-41100, Promocell). Briefly, the medium was aspirated from the HBMEC-layer and cells were washed with 2 ml of HEPES-buffered balanced salt solution. Addition of 2 ml of trypsin-EDTA solution for 1-5 min at room temperature led to detachment of HBMEC from the flask bottom. Inactivation of trypsin-EDTA solution was performed by addition of 2 ml of trypsin neutralization solution to the cell suspension. Cells were centrifuged at 300 g for 4 min in a Heraeus Megafuge 40 (Thermo Scientific) and seeded at a cell density of 5×10^5 cells per gelatin-coated 75 cm^2 cell culture flask (#L7230, Biochrom). […]

HBMEC = test: In vitro flow chamber: T cell-rolling on HBMEC, long-term conditions; type: cell-based, human
Protocol: Human brain microvascular endothelial cells (HBMEC) (#1000, Sciencell Research Laboratories) or human umbilical vein endothelial cells (HUVEC) (#C-12200, Promocell) were used as endothelial cell-model. Cryopreserved HBMEC at passage 1 (>5×10^5 cells/ml) were first cultivated in fibronectin-coated Nunclon-treated 75 cm^2 cell culture flasks (#156499, Nunc) at 37° C. and 5% CO2 in a Heraeus Cytoperm 2 (Thermo Scientific) according to the manufacturer's instructions. Sub-cultivation of HBMEC was done with the Detach Kit (#C-41200, Promocell) consisting of HEPES-buffered balanced salt solution (#C-40000, Promocell), trypsin-EDTA solution (0.04%/0.03%) (#C-41000, Promocell) and trypsin neutralization solution (TNS, #C-41100, Promocell). Briefly, the medium was aspirated from the HBMEC-layer and cells were washed with 2 ml of HEPES-buffered balanced salt solution. Addition of 2 ml of trypsin-EDTA solution for 1-5 min at room temperature led to detachment of HBMEC from the flask bottom. Inactivation of trypsin-EDTA solution was performed by addition of 2 ml of trypsin neutralization solution to the cell suspension. Cells were centrifuged at 300 g for 4 min in a Heraeus Megafuge 40 (Thermo Scientific) and seeded at a cell density of 5×10^5 cells per gelatin-coated 75 cm^2 cell culture flask (#L7230, Biochrom). HBMEC for rolling and adhesion experiments were cultivated in RPMI 1640 medium (#FG1215, Biochrom) supplemented with Nu-Serum IV (10%) (#355505, BD Biosciences), dialyzed FBS (10%) (#SZ0115, Biochrom), MEM-vitamins (1%) (#K0373, Biochrom), L-glutamine (1%) (#K0283, Biochrom), sodium-pyruvate (1%) (#L0473, Biochrom), heparin (10 U/ml) (#L6510, Biochrom), and […] cell growth factor ECGS (30 μg/ml) (#02-102, Millipore). Cultivation of HUVEC was done in endothelial cell growth medium (#C-22010, Promocell) supplemented with dialyzed FBS (10%) (#SZ0115, Biochrom) using gelatin-coated 75 cm^2 cell culture flasks. Sub-cultivation of HUVEC was performed with the Detach Kit ([…], Promocell) and cells were seeded at a cell density of 4.0-7.5×10^5 cells per 75 cm^2 cell culture flask.
Isolation of human PBMC from blood was performed by modified density gradient centrifugation as described elsewhere. Briefly, 15-20 ml of freshly drawn heparinized blood was transferred in Biocoll (#L6115, Biochrom)-containing Leukosep tubes (#227290, Greiner bio-one) and centrifuged in a Hettich Rotanta 460 RS Type 5606 (Hettich Laborapparate) at 1066 g for 15 min. After removal of the plasma fraction the PBMC containing phase was transferred in a new tube and washed twice with FACS-buffer (D-PBS #L1820, 5% FBS #SO115, Biochrom). Erythrocyte lysis was performed with lysis buffer (8.29 g/l NH4Cl, 1.00 g/l KHCO3, 0.037 g/l EDTA) for 5 min at room temperature. For subsequent purification of untouched T cells the human Pan T cell-isolation Kit II (#130-091-156, Miltenyi Biotec) was used according to the manufacturer's instructions.
The ibidi Pump System (#10902, ibidi) was used for cultivation of endothelial cells under flow conditions as well as for performing adhesion and rolling assays of human T cells on endothelial cells. The system consists of the ibidi Pump (#10905, ibidi) and the ibidi Fluidic Unit (#10903, ibidi) which work together to generate a unidirectional flow of medium in an attached slide with a defined channel height. The system is controlled by the ibidi Pump Control software (#10908, notebook+software, ibidi). For cultivation of HBMEC or HUVEC under flow conditions, HBMEC or HUVEC were seeded at a cell density of 2.5×10^6 cells/ml into μ-slide I^0.4 Luer Collagen IV (#80172, ibidi) or μ-slide I^0.4 Luer ibiTreat (#80176, ibidi), respectively according to the manufacturer's instructions and cultivated with a perfusion set “yellow/green” (#10964, ibidi) for 48 h under wall shear stress of 5 or 10 dyn/cm^2, respectively. […]

[1] = three patients with PPS co-medication

For “Blinatumomab: recombinant CD19×CD3 bispecific scFv antibody consisting of four immunoglobulin variable domains assembled into a single polypeptide chain”, the clinical response (patients; Patient 109-036, Follicular Lymphoma grade I/II, after 57 days of civ infusion) was “complete response (CR)”, the clinical response (patients; Patient 109-040, Lymphoplasmocytic Lymphoma, after 30 days of civ infusion) was “stable disease (SD)” and the clinical response (patients; Patient 109-042, Follicular Lymphoma grade I/II, after 56 days of civ infusion) was “complete response (CR)”. The “T cell-counts in peripheral blood 45 minutes after start of infusion or stepwise dose increase” value (patients; patients receiving Blinatumomab without co-medication with PPS) was “rapid decline of T cell-counts”, the “clinical response after 4 weeks of treatment” value (patients; [1]) was “one patient had a stable disease” and the “clinical response after 8 weeks of treatment” value (patients; [1]) was “Two out of the three patients achieved a complete response”. The “mean rolling velocity±SD” value (HUVEC; T cells pre-incubated with 10 ng/ml Blinatumomab for 45 min, short-term (45 sec), 1 dyn/cm^2, control −AMG 103 283±82) was 237±45 μm/sec, the “increase of number of T cells firmly adhering to HUVEC” value (HUVEC; pre-incubation with 10 ng/ml Blinatumomab, short-term conditions, vs −AMG 103) was 2.6 fold and the “T cell-rolling velocity immediately after addition” value (HBMEC; 10 ng/ml Blinatumomab, 0 min, long-term) was “no decrease of T cell-rolling velocity was detectable”. For the same substance, the “mean T cell-rolling velocity±SD” value (HBMEC; 10 ng/ml Blinatumomab, 45 min after addition, long-term, control −AMG 103 323±78) was 209±40 μm/sec, the “mean T cell-rolling velocity±SD” value (HBMEC; histamine-stimulated HBMEC, +AMG 103 10 ng/ml, 45 min, control −AMG 103 430±92) was 281±96 μm/sec and the “mean T cell-rolling velocity±SD” value (HBMEC; non-stimulated HBMEC (PPS experiment), +AMG 103 10 ng/ml, 40 min, control −AMG 103 399±153) was 263±66 μm/sec. For the same substance, the “mean T cell-rolling velocity±SD” value (HBMEC; non-stimulated HBMEC (anti-CD11a experiment), +AMG 103 10 ng/ml, 10 min, control −AMG 103 304±40) was 214 μm/sec, the “mean T cell-rolling velocity±SD” value (HBMEC; non-stimulated HBMEC (anti-CD162 experiment), +AMG 103 10 ng/ml, 45 min, control −AMG 103 539±149) was 428±89 μm/sec and the “mean T cell-rolling velocity±SD” value (HBMEC; non-stimulated HBMEC (anti-ICAM-1 experiment), +AMG 103 10 ng/ml, 30 min, control −AMG 103 407±90) was 335 μm/sec. The “mean T cell-rolling velocity±SD” value (HBMEC; non-stimulated HBMEC (anti-P-selectin experiment), +AMG 103 10 ng/ml, 40 min, control −AMG 103 449±90) was 370±55 μm/sec, the “mean T cell-rolling velocity±SD” value (HBMEC; non-stimulated HBMEC (natalizumab experiment), +AMG 103 10 ng/ml, 40 min, control −AMG 103 482±149) was 359±102 μm/sec and the “mean T cell-rolling velocity±SD” value (HBMEC; non-stimulated HBMEC (recombinant P-selectin experiment), +AMG 103 10 ng/ml, 45 min, control −AMG 103 386±77) was 340±68 μm/sec.
